Data from patent US5164381A, “Pharmacologically active 1,5-diaryl-3-substituted pyrazoles and method for synthesizing the same” (Ortho Pharmaceutical Corporation, priority 1991, dated 1992).
Structures can show the parent of a compound that is named as a salt.

tested on: Lewis strain laboratory rats; experiment: In vivo alleviation of inflammation: polyarthritis (adjuvant, Mycobacterium butyricum) in rats, inhibition of paw volume increase; conditions: Rattus norvegicus, po, rat; read-out: ED50 (effective dose to obtain a 50% inhibition of inflammation)
Description: Polyarthritis was induced in Lewis strain laboratory rats (weight=about 200 grams) by injection of a suspension of Mycobacterium butyricum in mineral oil into the subplantar tissue of the mammal's hind paws. On day 10 after the injection, the rats were assigned to groups, and paw volumes and body weights were recorded. Paw volumes of the contralateral, uninjected hind paw were determined by mercury plethylsmography. Per oral (p.o.) dosing began and continued for five consecutive days thereafter. On day 14 after the initial injection, approximately four hours after the final dose was administered, paw volumes and body weights were recorded and quantitated.
Anti-inflammatory activity of the substituted pyrazole compounds is expressed as the percent inhibition of paw volume increase.

Row | SMILES | ED50 [mg/kg]
1 | COc1ccc(-n2nc(CCCO)cc2-c2ccc(Cl)cc2)cc1 [Compound 2, 5-(4-Chlorophenyl)-3-(3-hydroxypropyl)-1-(4-methoxyphenyl) pyrazole] | 3.6
2 | COc1ccc(-n2nc(CCC=O)cc2-c2ccc(Cl)cc2)cc1 [Compound 11, 3-[5-(4-Chlorophenyl)-1-(4-methoxyphenyl)-3-pyrazolyl] propanal] | 2.6
3 | COc1ccc(-n2nc(CCCO)cc2-c2ccc(C)cc2)cc1 [Compound 55, 3-(3-hydroxypropyl)-1-(4-methoxyphenyl)-5-(4-tolyl)pyrazole] | 3.9
4 | COc1ccc(-n2nc(CCCO)cc2-c2ccc(C(F)(F)F)cc2)cc1 [Compound 56, 5-(4-trifluoromethylphenyl)-3-(3-hydroxypropyl)-1-(4-methoxyphenyl) pyrazole] | 3

same assay, conditions: p.o., rat

Row | SMILES | ED50 (effective dose to obtain a 50% inhibition of inflammation) [mpk]
5 | COc1ccc(-n2nc(CCC(=O)O)cc2-c2ccc(Cl)cc2)cc1 [Compound 12, 3-[5-(4-Chlorophenyl)-1-(4-methoxyphenyl)-3-pyrazolyl] propionic acid] | 5.2

same assay, conditions: p.o., rat; monohydrate

Row | SMILES | ED50 (effective dose to obtain a 50% inhibition of inflammation) [mpk]
6 | COc1ccc(-n2nc(CCC(=O)O)cc2-c2ccc(Cl)cc2)cc1 [Compound 13, Sodium 3-[5-(4-chlorophenyl)-1-(4-methoxyphenyl)-3-pyrazoyl] propanoate monohydrate] | 1.8

same assay, conditions: po, 336 h; 10 mpk p.o., rat; read-out: % INH. p.o. (percentage inhibition of pad swelling)

Row | SMILES | inhibition in vivo at 10 mg/kg [%]
7 | COc1ccc(-n2nc(CCC(=O)N(C)O)cc2-c2ccc(Cl)cc2)cc1 [Compound 3a, 3-[5-(4-Chlorophenyl)-1-(4-methoxyphenyl)-3-pyrazolyl] -N-hydroxy-N-methylpropanamide sodium salt monohydrate] | 65

same assay, conditions: po, 336 h; 25 mpk p.o., rat; read-out: % INH. p.o. (percentage inhibition of pad swelling)

Row | SMILES | inhibition in vivo at 25 mg/kg [%]
8 | COc1ccc(-n2nc(CCCOC(=O)CCc3cc(-c4ccc(Cl)cc4)n(-c4ccc(OC)cc4)n3)cc2-c2ccc(Cl)cc2)cc1 [Compound 16, 3-[5-(4-Chlorophenyl)-1-(4-methoxyphenyl)-3-pyrazolyl] propyl 3-[5-(4-Chlorophenyl)-1-(4-methoxyphenyl)-3-pyrazolyl] propionate] | 82
9 | O=C(O)CCc1cc(-c2ccc(Cl)cc2)n(-c2ccccc2)n1 [Compound 17, 3-[5-(4-Chlorophenyl)-1-phenyl-3-pyrazolyl]propionic acid] | 50
10 | COCCCc1cc(-c2ccc(Cl)cc2)n(-c2ccc(OC)cc2)n1 [Compound 24, 3-[5-(4-Chlorophenyl)-1-(4-methoxyphenyl)-3-pyrazolyl] propyl methyl ether] | 64
11 | COC(=O)c1ccc(/C=C/CCc2cc(-c3ccc(Cl)cc3)n(-c3ccc(OC)cc3)n2)cc1 [Compound 25, 3-[4-(4-Carbomethoxyphenyl)-3(E)-butenyl]-5-(4-chlorophenyl)-1-(4-methoxyphenyl) pyrazole] | 18
12 | COc1ccc(-n2nc(CCC=NO)cc2-c2ccc(Cl)cc2)cc1 [Compound 26, 5-(4-Chlorophenyl)-3-(3-oximinopropyl)-1-(4-methoxyphenyl) pyrazole] | 79
13 | CCN(CC)C(=O)CCc1cc(-c2ccc(Cl)cc2)n(-c2ccc(OC)cc2)n1 [Compound 28, 3-[5-(4-Chlorophenyl)-1-(4-methoxyphenyl)-3-pyrazolyl]-N,N-diethylpropanamide] | 44
14 | COc1ccc(-n2nc(CCC(=O)NO)cc2-c2ccc(Cl)cc2)cc1 [Compound 29, 3-[5-(4-Chlorophenyl)-1-(4-methoxyphenyl)-3-pyrazolyl]-N-hydroxypropanamide] | 91
15 | COc1ccc(-n2nc(CCCO)cc2-c2ccc(F)cc2)cc1 [Compound 30] | 42
16 | COc1ccc(-n2nc(CCC(N)=O)cc2-c2ccc(Cl)cc2)cc1 [Compound 31] | 75
17 | COc1ccc(-n2nc(CC/C=C\CCCC(=O)O)cc2-c2ccc(Cl)cc2)cc1 [Compound 32, Sodium 8-[5-(4-Chlorophenyl)-1-(4-methoxyphenyl)-3-pyrazolyl]-5(Z)-octenoate] | 69
18 | COc1ccc(-n2nc(CCC(=O)Nc3ccc(O)cc3)cc2-c2ccc(Cl)cc2)cc1 [Compound 34] | 21
19 | OCCCc1cc(-c2ccc(Cl)cc2)n(-c2ccc(Br)cc2)n1 [Compound 35, 1-(4-bromophenyl)-5-(4-chlorophenyl)-3-(3-hydroxypropyl) pyrazole] | 65
20 | Cc1ccc(-n2nc(CCCO)cc2-c2ccc(Cl)cc2)cc1 [Compound 37] | 41
21 | COc1ccc(-n2nc(CCC(=O)N(C)OC)cc2-c2ccc(Cl)cc2)cc1 [Compound 44] | 69
22 | COc1ccc(-n2nc(CCC(=O)N(C)O)cc2-c2ccc(F)cc2)cc1 [Compound 45, 3-[5-(4-Fluorophenyl)-1-(4-methoxyphenyl)-3-pyrazolyl]-N-hydroxy-N-methyl propanamide] | 51
23 | CSc1ccc(-n2nc(CCCO)cc2-c2ccc(Cl)cc2)cc1 [Compound 47] | 48
24 | COc1ccc(-n2nc(CCCO)cc2-c2ccc(-c3ccccc3)cc2)cc1 [Compound 54] | 36

same assay, conditions: po, 336 h; 30 mpk p.o., rat; read-out: % INH. p.o. (percentage inhibition of pad swelling)

Row | SMILES | inhibition in vivo at 30 mg/kg [%]
25 | CCCCCOc1ccc(-n2nc(CCCO)cc2-c2ccc(Cl)cc2)cc1 [Compound 51] | 6.4

same assay, conditions: po, 336 h; 40 mpk p.o., rat; read-out: % INH. p.o. (percentage inhibition of pad swelling)

Row | SMILES | inhibition in vivo at 40 mg/kg [%]
26 | COC(=O)CCc1cc(-c2ccc(Cl)cc2)n(-c2ccc(OC)cc2)n1 [Compound 19, Methyl 3-[5-(4-chlorophenyl)-1-(4-methoxyphenyl)-3-pyrazolyl] propionate] | 69
27 | COc1ccc(-n2nc(CCC(C)O)cc2-c2ccc(Cl)cc2)cc1 (stereo not drawn) [Compound 20, 5-(4-Chlorophenyl)-3-(3-hydroxybutyl)-1-(4-methoxyphenyl) pyrazole] | 19
28 | COc1ccc(-n2nc(CCC(C)=O)cc2-c2ccc(Cl)cc2)cc1 [Compound 23, 5-(4-Chlorophenyl)-1-(4-methoxyphenyl)-3-(3-oxobutyl)pyrazole] | 53
29 | COc1ccc(-n2nc(CC/C=C\CCCC(N)=O)cc2-c2ccc(Cl)cc2)cc1 [Compound 38] | 40
30 | O=[N+]([O-])c1ccc(-n2nc(CCCO)cc2-c2ccc(Cl)cc2)cc1 [Compound 48] | 40
31 | CNOC(=O)CCc1cc(-c2ccc(Cl)cc2)n(-c2ccc(OC)cc2)n1 [Compound 53, 0-[2-[5-(4-Chlorophenyl)-1-(4-methoxyphenyl)-3-pyrazolyl]ethyl-carbonyl]-N-methylhydroxylamine] | 94

same assay, conditions: po, 336 h; 50 mpk p.o., rat; read-out: % INH. p.o. (percentage inhibition of pad swelling)

Row | SMILES | inhibition in vivo at 50 mg/kg [%]
32 | OCCCc1cc(-c2ccc(Cl)cc2)n(-c2ccccc2)n1 [Compound 1] | 62
33 | OCCCc1cc(-c2ccc(Cl)cc2)n(-c2ccc(Cl)cc2)n1 [Compound 4] | 68
34 | CC(=O)OCCCc1cc(-c2ccc(Cl)cc2)n(-c2ccccc2)n1 [Compound 7, 3-(3-Acetoxypropyl)-5-(4-chlorophenyl)-1-phenylpyrazole] | 54
35 | OCCCc1cc(-c2ccc(Cl)cc2)n(-c2ccc(Cl)c(Cl)c2)n1 [Compound 8] | 41
36 | COc1ccc(-n2nc(CCCO)cc2-c2ccccc2)cc1 [Compound 10] | 30
37 | OCCCc1cc(-c2ccccc2)n(-c2ccc(Cl)cc2)n1 [Compound 21] | 52
38 | COc1ccccc1-n1nc(CCCO)cc1-c1ccc(Cl)cc1 [Compound 22] | 33
39 | CS(=O)(=O)c1ccc(-n2nc(CCCO)cc2-c2ccc(Cl)cc2)cc1 [Compound 36] | 40
